Data reported in PMC8243326, “Data-Driven Ensemble Docking to Map Molecular Interactions of Steroid Analogs with Hepatic Organic Anion Transporting Polypeptides” (Journal of Chemical Information and Modeling, 2021).
Read-outs that look alike come from different tables or passages of the source.

How the values were obtained:
OATP2B1 [1] = molecular target: T1, OATP2B1 (Homo sapiens, UniProt O94956); experiment: Pyranine uptake inhibition in A431 cells overexpressing OATP2B1; settings: for selectivity for OATP2B1 (in words): vs OATP1B1 and OATP1B3; for fold decrease in activity compared with compound 11: 3-hydroxy and 3-methoxy analogs vs 3-benzyloxy compound 11
T1 sequence (O94956 1-709): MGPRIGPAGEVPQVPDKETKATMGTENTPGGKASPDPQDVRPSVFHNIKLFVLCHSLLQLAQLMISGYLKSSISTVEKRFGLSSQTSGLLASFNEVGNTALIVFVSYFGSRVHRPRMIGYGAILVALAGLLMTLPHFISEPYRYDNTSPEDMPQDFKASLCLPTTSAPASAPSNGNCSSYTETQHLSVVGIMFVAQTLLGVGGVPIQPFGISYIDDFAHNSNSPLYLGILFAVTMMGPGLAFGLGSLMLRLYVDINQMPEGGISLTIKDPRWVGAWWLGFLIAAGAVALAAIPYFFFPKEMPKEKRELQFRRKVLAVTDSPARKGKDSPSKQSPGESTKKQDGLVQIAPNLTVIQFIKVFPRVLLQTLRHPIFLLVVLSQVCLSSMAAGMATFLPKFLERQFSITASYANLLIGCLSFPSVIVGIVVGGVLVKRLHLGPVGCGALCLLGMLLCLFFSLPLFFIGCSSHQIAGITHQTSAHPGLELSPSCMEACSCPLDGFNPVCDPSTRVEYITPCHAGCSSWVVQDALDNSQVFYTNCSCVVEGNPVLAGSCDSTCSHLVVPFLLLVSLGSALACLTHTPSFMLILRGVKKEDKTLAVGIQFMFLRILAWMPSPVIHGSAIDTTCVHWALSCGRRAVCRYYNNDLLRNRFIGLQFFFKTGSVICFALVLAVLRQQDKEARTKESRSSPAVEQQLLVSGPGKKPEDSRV
Experimental: (§1) Compounds with measured bioactivities (Km, IC50, Ki, and EC50 bioactivity end points or percentage inhibition values) on OATP1B1 (n = 440 compounds), OATP1B3 (n = 936 compounds), or OATP2B1 (n = 173 compounds) were collected from the open domain by utilizing a KNIME workflow, which collects data from five independent data sources as described in Tuerkova et al.[15] […] IC50 values were calculated based on transport inhibition measurements (see below) by Hill1 fit, using the Origin Pro8.6 software (OriginLab Corporation, Northampton, MA, US).
(§2) 20 mM stocks in DMSO were stored for further usage at −20 °C. A431 cells overexpressing OATPs, OATP1B1, OATP1B3, or OATP2B1 or mock transfected controls were generated previously.[60] A431 cells were maintained in DMEM medium (Thermo Fischer Scientific, Waltham, MA, US) supplemented with 10% fetal bovine serum, 2 mM L-glutamine, 100 units/mL penicillin, and 100 μg/mL streptomycin at 37 °C with 5% CO2. […] The uptake of pyranine was measured on microplates based on the method developed by us previously.[60],[61]
(§3) Briefly, 1 day prior to the uptake measurement cells (8 × 10^4 cells/well in 200 μL DMEM) were seeded on 96-well plates. On the following day, the medium was removed, and the cells were washed three times with 200 μL of phosphate-buffered saline (PBS, pH 7.4) and preincubated with 50 μL of uptake buffer (125 mM NaCl, 4.8 mM KCl, 1.2 mM CaCl2, 1.2 mM KH2PO4, 12 mM MgSO4, 25 mM MES (2-(N-morpholino)ethanesulfonic acid, and 5.6 mM glucose, pH 5.5) with or without increasing concentrations of the tested compounds. The reaction was started by the addition of 50 μL of uptake buffer containing pyranine in a final concentration of 10 μM (OATP1B1) or 20 μM (OATP1B3 and OATP2B1). Cells were incubated with the dye at 37 °C for 15 min (OATP1B1 and OATP2B1) or 30 min (OATP1B3), after which the supernatant was removed, and the cells were washed three times with 200 μL of ice-cold PBS. Fluorescence (in 200 μL of PBS/well) was determined in an Enspire plate reader (PerkinElmer, Waltham, MA, Ex/Em = 403/517 nm). OATP-dependent transport was calculated by extracting fluorescence measured in mock transfected cells. Transport activity was calculated based on the fluorescence signal in the absence (100%) of the tested compounds. Experiments were repeated at least three times on cells deriving from different passages.
(§4) IC50 values were calculated by Hill1 fit, using the (OriginLab Corporation, Northampton, MA, US).

OATP1B3 [2] = molecular target: T2, OATP1B3 (Homo sapiens, UniProt Q9NPD5); experiment: Pyranine uptake inhibition in A431 cells overexpressing OATP1B3
T2 sequence (Q9NPD5 1-702): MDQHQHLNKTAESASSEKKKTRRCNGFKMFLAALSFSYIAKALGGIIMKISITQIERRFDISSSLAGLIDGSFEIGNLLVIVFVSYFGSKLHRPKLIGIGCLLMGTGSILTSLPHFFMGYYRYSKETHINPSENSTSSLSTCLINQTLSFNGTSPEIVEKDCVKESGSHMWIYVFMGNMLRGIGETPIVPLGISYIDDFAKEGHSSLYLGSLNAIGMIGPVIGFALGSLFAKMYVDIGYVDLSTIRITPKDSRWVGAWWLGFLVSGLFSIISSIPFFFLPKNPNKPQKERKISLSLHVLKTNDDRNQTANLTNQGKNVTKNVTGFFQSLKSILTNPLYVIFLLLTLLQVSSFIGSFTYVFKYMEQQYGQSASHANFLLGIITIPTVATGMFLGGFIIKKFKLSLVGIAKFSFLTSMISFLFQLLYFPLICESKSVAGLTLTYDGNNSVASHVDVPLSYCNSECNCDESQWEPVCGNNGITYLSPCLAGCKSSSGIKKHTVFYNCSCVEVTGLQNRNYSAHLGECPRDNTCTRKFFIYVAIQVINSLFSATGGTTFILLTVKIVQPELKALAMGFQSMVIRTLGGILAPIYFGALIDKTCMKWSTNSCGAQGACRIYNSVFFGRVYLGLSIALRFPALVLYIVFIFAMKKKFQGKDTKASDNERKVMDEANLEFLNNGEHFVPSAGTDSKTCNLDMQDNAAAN
Experimental: as §1, §2, §3, §4

OATP1B1 [3] = molecular target: T3, OATP1B1 (Homo sapiens, UniProt Q9Y6L6); experiment: Pyranine uptake inhibition in A431 cells overexpressing OATP1B1; settings: for activity on OATP1B1 and OATP1B3 (in words): statement covers both OATP1B1 and OATP1B3
T3 sequence (Q9Y6L6 1-691): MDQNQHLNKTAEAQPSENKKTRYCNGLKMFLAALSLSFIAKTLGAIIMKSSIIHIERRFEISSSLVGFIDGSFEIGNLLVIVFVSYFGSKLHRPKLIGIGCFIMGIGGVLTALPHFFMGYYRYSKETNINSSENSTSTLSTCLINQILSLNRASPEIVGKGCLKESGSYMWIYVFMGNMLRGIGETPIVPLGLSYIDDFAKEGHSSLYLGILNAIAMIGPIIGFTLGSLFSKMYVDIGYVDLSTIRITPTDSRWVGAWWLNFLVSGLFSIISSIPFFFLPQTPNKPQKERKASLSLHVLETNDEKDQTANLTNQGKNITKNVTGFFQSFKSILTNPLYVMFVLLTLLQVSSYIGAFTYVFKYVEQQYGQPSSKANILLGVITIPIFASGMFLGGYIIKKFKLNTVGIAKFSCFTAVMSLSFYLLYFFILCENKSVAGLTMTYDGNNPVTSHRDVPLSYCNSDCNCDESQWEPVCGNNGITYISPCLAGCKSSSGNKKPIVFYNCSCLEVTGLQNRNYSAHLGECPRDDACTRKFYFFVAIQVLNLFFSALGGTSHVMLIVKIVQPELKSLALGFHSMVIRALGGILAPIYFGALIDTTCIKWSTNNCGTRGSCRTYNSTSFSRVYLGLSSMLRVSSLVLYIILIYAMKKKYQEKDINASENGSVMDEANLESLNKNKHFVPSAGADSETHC
Experimental: IC50 values were calculated based on transport inhibition measurements (see below) by Hill1 fit, using the Origin Pro8.6 software (OriginLab Corporation, Northampton, MA, US).
as §2
Briefly, 1 day prior to the uptake measurement cells (8 × 10^4 cells/well in 200 μL DMEM) were seeded on 96-well plates. […] OATP-dependent transport was calculated by extracting fluorescence measured in mock transfected cells. Transport activity was calculated based on the fluorescence signal in the absence (100%) of the tested compounds. Experiments were repeated at least three times on cells deriving from different passages.
as §4

OATP2B1 [4] = molecular target: T1, OATP2B1; set-up: method as in earlier work; settings: Figure S14; public data sources; cited from earlier work
OATP1B1 [5] = molecular target: T3, OATP1B1; settings: cited from earlier work; for median bioactivity value: OATP1B1, public data sources
OATP1B3 [6] = molecular target: T2, OATP1B3; set-up: expressed in transfected cells; host or cells: A431 cells; settings: public data sources; cited from earlier work

| Compound | IC50 (OATP2B1 [1]) | IC50 (OATP1B3 [2]) | IC50 (OATP1B1 [3]) | activity on OATP1B1 and OATP1B3 (in words) (OATP1B1 [3]) | further results |
| --- | --- | --- | --- | --- | --- |
| C[C@@]12CCC3c4ccc(O)cc4CCC3C1CCC2=O (stereo partly drawn) [Compound 1, 13α-estrone] | > 50 µM | > 50 µM |  |  |  |
| COc1ccc2c(c1)CCC1C2CC[C@@]2(C)C(=O)CCC12 (stereo partly drawn) [Compound 2] | 5.41 µM | > 50 µM | > 50 µM |  |  |
| C[C@@]12CCC3c4ccc(OCc5ccccc5)cc4CCC3C1CCC2=O (stereo partly drawn) [Compound 3] | 7.17 µM | > 50 µM | > 50 µM |  |  |
| COc1cc2c(cc1Br)C1CC[C@@]3(C)C(=O)CCC3C1CC2 (stereo partly drawn) [Compound 4] | 8.39 µM | > 50 µM | > 50 µM |  | fold decrease in affinity compared to hydroxyl derivative (compound 5) (OATP2B1 [1]; OATP2B1): 7 fold; selectivity for OATP2B1 (in words) (OATP2B1 [1]): selective |
| C[C@@]12CCC3c4cc(Br)c(O)cc4CCC3C1CCC2=O (stereo partly drawn) [Compound 5] | 1.19 µM | > 50 µM | > 50 µM |  | selectivity for OATP2B1 (in words) (OATP2B1 [1]): selective |
| C[C@@]12CCC3c4ccc(O)c(Br)c4CCC3C1CCC2=O (stereo partly drawn) [Compound 6] | 2.97 µM | 9.2 µM | 4.07 µM | weak to borderline inhibitory activity |  |
| C[C@@]12CCC3c4cc(I)c(O)cc4CCC3C1CCC2=O (stereo partly drawn) [Compound 7] | 0.6 µM | 18.2 µM | 22.5 µM |  | selectivity for OATP2B1 (in words) (OATP2B1 [1]): selective |
| C[C@@]12CCC3c4ccc(O)c(I)c4CCC3C1CCC2=O (stereo partly drawn) [Compound 8] | 3.58 µM | 8.28 µM | 9.28 µM | weak to borderline inhibitory activity |  |
| C[C@@]12CCC3c4cc(Cl)c(O)cc4CCC3C1CCC2=O (stereo partly drawn) [Compound 9] | 0.9 µM | > 50 µM | > 50 µM |  | selectivity for OATP2B1 (in words) (OATP2B1 [1]): selective |
| C[C@@]12CCC3c4ccc(O)c(Cl)c4CCC3C1CCC2=O (stereo partly drawn) [Compound 10] | 10.5 µM | > 50 µM | 25 µM |  | IC50 at 15 min (OATP2B1 [1]; human, pH 5.5): 10.5 µM |
| CCOP(=O)(OCC)c1cc2c(cc1OCc1ccccc1)CCC1C2CC[C@@]2(C)C(=O)CCC12 (stereo partly drawn) [Compound 11] | 0.18 µM | 2.18 µM | 0.76 µM | highly active |  |
| CCOP(=O)(OCC)c1c(OCc2ccccc2)ccc2c1CCC1C2CC[C@@]2(C)C(=O)CCC12 (stereo partly drawn) [Compound 12] | 0.75 µM | 2.49 µM | 3.22 µM | highly active |  |
| CCOP(=O)(OCC)c1cc2c(cc1O)CCC1C2CC[C@@]2(C)C(=O)CCC12 (stereo partly drawn) [Compound 13] | 3.18 µM | 5.24 µM | 3.79 µM | moderate activity | fold decrease in activity compared with compound 11 (OATP2B1 [1]; OATP2B1): approximately 17 fold |
| CCOP(=O)(OCC)c1c(O)ccc2c1CCC1C2CC[C@@]2(C)C(=O)CCC12 (stereo partly drawn) [Compound 14] | 10.2 µM | > 50 µM | > 50 µM |  |  |
| CCOP(=O)(OCC)c1cc2c(cc1OC)CCC1C2CC[C@@]2(C)C(=O)CCC12 (stereo partly drawn) [Compound 15] | 2.96 µM | 9.5 µM | 10.1 µM | rather inactive | fold decrease in activity compared with compound 11 (OATP2B1 [1]; OATP2B1): approximately 17 fold |
| CCOP(=O)(OCC)c1c(OC)ccc2c1CCC1C2CC[C@@]2(C)C(=O)CCC12 (stereo partly drawn) [Compound 16] | 2.74 µM | 11.8 µM | 32.4 µM | rather inactive |  |
| C[C@]12CC[C@@H]3c4ccc(OS(=O)(=O)O)cc4CC[C@H]3[C@@H]1CCC2=O [E-3-S, estrone-3-sulfate] |  |  |  |  | IC50 (OATP2B1 [4]): 10 µM; median bioactivity value (OATP1B1 [5]): 0.450 µM; transporter selectivity (in words) (OATP1B1 [5]; OATP1B1 vs OATP1B3, known from literature): OATP1B1 selective |
| COC(=O)CC[C@@H](C)[C@H]1CC[C@H]2[C@@H]3[C@H](O)C[C@@H]4C[C@H](O)CC[C@]4(C)[C@H]3C[C@H](O)[C@]12C [cholic acid methyl ester] |  |  |  |  | median bioactivity value (OATP1B1 [5]): 0.20 µM; median bioactivity value (OATP1B3 [6]): 0.13 µM |
| C[C@H](CCC(=O)O)[C@H]1CC[C@H]2[C@@H]3CC[C@@H]4C[C@H](O)CC[C@]4(C)[C@H]3CC[C@]12C [lithocholate] |  |  |  |  | median bioactivity value (OATP1B1 [5]): 0.918 µM; median bioactivity value (OATP1B3 [6]): 6.807 µM |
